Active and inactive are the calls of the source. The calls are words filed in the database; no cut-off is given here.
Assays:
[1] = biological target: C-C motif chemokine 2 (Homo sapiens) (UniProt P13500); test: Inhibition of CCL2 in human THP1 cells assessed as reduction of cell migration into TNFalpha/IFNgamma-stimulated HMEC-1 cells at 50 uM after 4 hrs; assay type: cell-based; settings: THP-1
[2] = biological target: C-C motif chemokine 2 (Homo sapiens) (UniProt P13500); test: Inhibition of CCL2 in human THP1 cells assessed as reduction of cell migration at 100 uM after 3 hrs; assay type: cell-based; settings: THP-1
[3] = biological target: C-C motif chemokine 2 (Homo sapiens) (UniProt P13500); test: Inhibition of CCL2 in human THP1 cells assessed as reduction of cell migration at 50 uM after 3 hrs; assay type: cell-based; settings: THP-1
[4] = biological target: C-C motif chemokine 2 (Homo sapiens) (UniProt P13500); test: Inhibition of CCL2 in human THP1 cells assessed as effect on level of ERK1/2 phosphorylation at 50 uM after 5 mins by Western blot analysis; assay type: cell-based; settings: THP-1
[5] = biological target: C-C motif chemokine 2 (Homo sapiens) (UniProt P13500); test: Inhibition of CCL2 in human PBMC assessed as reduction of cell adhesion to VCAM1-Fc at 50 uM by flow based adhesion assay
[6] = biological target: T1, C-C motif chemokine 5 (Homo sapiens) (UniProt P13501); test: Inhibition of CCL5 in human THP1 cells assessed as reduction of cell migration at 50 uM after 3 hrs; assay type: cell-based; settings: THP-1
T1 sequence (whole entry): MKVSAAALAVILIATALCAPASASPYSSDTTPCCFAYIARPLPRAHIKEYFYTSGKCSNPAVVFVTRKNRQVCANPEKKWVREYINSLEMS

[7] = biological target: C-C motif chemokine 7 (Homo sapiens) (UniProt P80098); test: Inhibition of CCL7 in human THP1 cells assessed as reduction of cell migration at 50 uM after 3 hrs; assay type: cell-based; settings: THP-1
[8] = biological target: C-C motif chemokine 2 (Homo sapiens) (UniProt P13500); test: Inhibition of CCL2 in human PBMC assessed as reduction of cell migration into TNFalpha/IFNgamma-stimulated HMEC-1 cells at 50 uM after 4 hrs; assay type: cell-based

Chain of C-C motif chemokine 2 (Homo sapiens) (P13500 24-99 limits assumed): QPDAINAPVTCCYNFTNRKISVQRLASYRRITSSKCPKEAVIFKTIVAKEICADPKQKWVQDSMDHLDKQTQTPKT
Chain of C-C motif chemokine 7 (Homo sapiens) (P80098 whole entry): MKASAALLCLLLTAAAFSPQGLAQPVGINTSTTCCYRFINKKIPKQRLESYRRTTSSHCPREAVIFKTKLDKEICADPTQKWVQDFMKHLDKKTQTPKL

SMILES	inhibition [1]	inhibition [2]	inhibition [3]	inhibition [4]	inhibition [5]	inhibition [6]	inhibition [7]	inhibition [8]
O=C1N[C@@H](Cc2ccc(F)cc2)C(=O)N2CCC[C@@H]12	70%	Active	40%	inactive	35%	inactive	inactive	Active
O=C1N[C@@H](Cc2ccccc2)C(=O)N2CCC[C@@H]12	50%	Active	Active	inactive	–	–	–	Active

Source: ChEMBL document CHEMBL3217544, “Evaluation of two cyclic di-peptides as inhibitors of CCL2 induced chemotaxis” (Medchemcomm, 2013)
